Data: patent US20240139188A1, “Arylamide Compounds For Treatment And Prevention Of Fungal Infections” (priority 2022, published 2024)

Tests used:
A. fumigatus = experiment: Protein kinase inhibitor (PKI) library screen with or without BRI; conditions: for growth, PKI (20 μM): PKI 20 μM alone; for growth, PKI (20 μM) + BRI (20 μM): PKI 20 μM together with BRI 20 μM; for activity at 20 µM: Aspergillus fumigatus, 48 h, read-out: growth, PKI (20 μM)
Protocol: A protein kinase inhibitors (PKI) library was also screened in combination with BRI. In total, 58 PKI were analyzed. Briefly, 100 μL of liquid MM containing 2.5×10^3 conidia/mL of the A. fumigatus wild-type strain plus 10% alamar blue was inoculated with increasing concentration of PKI (5-80 μM) in the presence (or not) of BRI (20μM) and incubated 48 hours at 37° C. without shaking. […] Plates were incubated for 48 hours at 37° C. without shaking. All experiments containing alamar blue were, after 48 hours incubation, read spectrophotometically by fluorescence and analyzed as previously described. Experiments were repeated at least three times.
To assess the mechanism of action of BRI, a collection of 58 protein kinase inhibitors (PKI, at a concentration of 20 μM; Table 4) was screened for A. fumigatus growth and corresponding metabolic activity alone or together with 20 μM BRI (Table 4).

Aspergillus fumigatus = experiment: In vitro susceptibility (MIC), macrobroth dilution; format: cell-based; conditions: A. fumigatus 10AF, drug alone

Compound | growth, PKI (20 μM) (A. fumigatus) | growth, PKI (20 μM) + BRI (20 μM) (A. fumigatus) | activity at 20 µM (A. fumigatus) | MIC50 (Aspergillus fumigatus; lowest concentration causing 50% decrease in growth vs untreated control) | MIC100 (Aspergillus fumigatus; lowest concentration without growth)
Nc1ncnc2c1c(I)cn2[C@@H]1O[C@H](CO)[C@@H](O)[C@H]1O [5 + iodo tubercidin] | + (+: growth ≤60% compared to no treatment) | ++ (++: growth ≥80% compared to no treatment) | – | – | –
Clc1ccc(C2(c3ccc(-c4cn[nH]c4)cc3)CCNCC2)cc1 [AT7867] | ++ (++: growth ≥80% compared to no treatment) | ++ (++: growth ≥80% compared to no treatment) | – | – | –
N#Cc1ccc2[nH]c(O)c(-c3ccc(CN4CCOCC4)cn3)c2c1 [AZD1080] | – | ++ (++: growth ≥80% compared to no treatment) | > 80% | – | –
COc1ccc(-c2ccc3c(N4CCOC[C@@H]4C)nc(N4CCOC[C@@H]4C)nc3n2)cc1CO [AZD + 8055] | ++ (++: growth ≥80% compared to no treatment) | ++ (++: growth ≥80% compared to no treatment) | – | – | –
O=C(NCCCNc1nc(Nc2cccc(NC(=O)N3CCCC3)c2)ncc1I)c1cccs1 [BX + 795] | ++ (++: growth ≥80% compared to no treatment) | ++ (++: growth ≥80% compared to no treatment) | – | – | –
CCN1C(=O)CNc2ncc(-c3ccc(-c4nc[nH]n4)nc3C)nc21 [CC + 115] | ++ (++: growth ≥80% compared to no treatment) | ++ (++: growth ≥80% compared to no treatment) | – | – | –
Cc1cnc(-c2cnc(NCCNc3ccc(C#N)cn3)nc2-c2ccc(Cl)cc2Cl)[nH]1 [CHIR + 99021] | ++ (++: growth ≥80% compared to no treatment) | ++ (++: growth ≥80% compared to no treatment) | – | – | –
O=C(O)c1ccc2c(c1)nc(Nc1cccc(Cl)c1)c1cnccc12 [CX + 4945] | ++ (++: growth ≥80% compared to no treatment) | ++ (++: growth ≥80% compared to no treatment) | – | – | –
NC(=O)c1ccc(-c2nc(-c3ccc4c(c3)OCCO4)c(-c3ccccn3)[nH]2)cc1 [D4476] | ++ (++: growth ≥80% compared to no treatment) | ++ (++: growth ≥80% compared to no treatment) | – | – | –
CCn1c(=O)c(-c2ccc(-c3cncs3)cc2Cl)cc2cnc(Nc3ccc(N4CCN(C)CC4)cc3)nc21 [FRAX597] | ++ (++: growth ≥80% compared to no treatment) | ++ (++: growth ≥80% compared to no treatment) | – | – | –
Nc1nc(=O)[nH]cc1F [Flucytosine (FLCY)] | – | – | – | >64 µg/mL | >64 µg/mL
CNc1ncc2cc(-c3ccc(-c4cccc(C)n4)cc3Cl)c(=O)n(C[C@H]3OC[C@H](N)CO3)c2n1 [G5555] | – | ++ (++: growth ≥80% compared to no treatment) | > 80% | – | –
COc1cc2c(Nc3cccc(NC(=O)c4ccccc4)c3)ncnc2cc1OCCCN1CCOCC1 [GSK223810A] | – | ++ (++: growth ≥80% compared to no treatment) | > 80% | – | –
NS(=O)(=O)c1ccc(N/N=C2\C(=O)Nc3ccc(C(=O)NCCCn4ccnc4)cc32)cc1 [GW290597X] | ++ (++: growth ≥80% compared to no treatment) | ++ (++: growth ≥80% compared to no treatment) | – | – | –
COc1ccc2[nH]c3c4[nH]c5ccc(OC)cc5c4c4c(c3c2c1)C(=O)NC4=O [GW296115X] | ++ (++: growth ≥80% compared to no treatment) | ++ (++: growth ≥80% compared to no treatment) | – | – | –
NS(=O)(=O)c1ccc(N/N=C2\C(=O)Nc3ccc(C(=O)NCc4ccncc4)cc32)cc1 [GW300657X] | ++ (++: growth ≥80% compared to no treatment) | ++ (++: growth ≥80% compared to no treatment) | – | – | –
NS(=O)(=O)c1ccc(N/N=C2\C(=O)Nc3ccc(C(=O)NCCc4c[nH]cn4)cc32)cc1 [GW300660X] | ++ (++: growth ≥80% compared to no treatment) | ++ (++: growth ≥80% compared to no treatment) | – | – | –
O=C1Nc2ccc(I)cc2C1=Cc1cc(Br)c(O)c(Br)c1 [GW305074X] | ++ (++: growth ≥80% compared to no treatment) | ++ (++: growth ≥80% compared to no treatment) | – | – | –
CC(C)COC(=O)c1ccc2c(c1)/C(=C/Nc1ccc(S(N)(=O)=O)cc1)C(=O)N2 [GW416981X] | ++ (++: growth ≥80% compared to no treatment) | ++ (++: growth ≥80% compared to no treatment) | – | – | –
Fc1ccc(-c2nn3ccccc3c2-c2ccncc2)cc1 [GW434756X] | ++ (++: growth ≥80% compared to no treatment) | ++ (++: growth ≥80% compared to no treatment) | – | – | –
O=C1NC(=O)C(c2cnc3ccccn23)=C1c1cn2c3c(cc(F)cc13)CN(C(=O)N1CCCCC1)CC2 [LY2090314] | – | ++ (++: growth ≥80% compared to no treatment) | > 80% | – | –
C[C@@]1(c2ncncc2F)NC(=O)c2cc(-c3cn[nH]c3)ccc21 [LY3177833] | ++ (++: growth ≥80% compared to no treatment) | ++ (++: growth ≥80% compared to no treatment) | – | – | –
Cc1nc(Nc2n[nH]c3c2CN(C(=O)N[C@H](CN(C)C)c2ccccc2)C3(C)C)c2sccc2n1 [PF + 3758309] | ++ (++: growth ≥80% compared to no treatment) | ++ (++: growth ≥80% compared to no treatment) | – | – | –

Compound | growth, PKI (20 μM) (A. fumigatus) | growth, PKI (20 μM) + BRI (20 μM) (A. fumigatus) | activity at 20 µM (A. fumigatus) | MIC50 (Aspergillus fumigatus; lowest concentration causing 50% decrease in growth vs untreated control) | MIC100 (Aspergillus fumigatus; lowest concentration without growth)
CCc1cncnc1N1CCN(Cc2nc3ccc(C(F)(F)F)cc3[nH]2)CC1 [PF + 4708671] | ++ (++: growth ≥80% compared to no treatment) | ++ (++: growth ≥80% compared to no treatment) | – | – | –
O=C1NCCc2[nH]c(-c3ccncc3)cc21 [PHA + 767491] | ++ (++: growth ≥80% compared to no treatment) | ++ (++: growth ≥80% compared to no treatment) | – | – | –
Cn1cc(C2=C(c3ccc(Cl)cc3Cl)C(=O)NC2=O)c2ccccc21 [SB 216763] | – | ++ (++: growth ≥80% compared to no treatment) | > 80% | – | –
C[S+]([O-])c1ccc(-c2nc(-c3ccc(F)cc3)c(-c3ccncc3)[nH]2)cc1 (stereo not drawn) [SB + 203580] | ++ (++: growth ≥80% compared to no treatment) | ++ (++: growth ≥80% compared to no treatment) | – | – | –
O=C(Nc1ccc2[nH]nc(-c3ccncc3)c2c1)[C@@H]1CCN(CC(=O)N2CCN(c3ccc(-c4ncccn4)cc3)CC2)C1 [SCH772984] | – | ++ (++: growth ≥80% compared to no treatment) | > 80% | – | –
CNC(=O)c1cc(Oc2ccc(NC(=O)Nc3ccc(Cl)c(C(F)(F)F)c3)cc2)ccn1 [Sorafenib] | – | ++ (++: growth ≥80% compared to no treatment) | > 80% | – | –
CCc1nc(-c2cccc(C)c2)c(-c2ccnc(NC(=O)c3ccccc3)c2)s1 [TAK + 715] | ++ (++: growth ≥80% compared to no treatment) | ++ (++: growth ≥80% compared to no treatment) | – | – | –
Cc1ccc(-c2csc3ncnc(SCCC(=O)O)c23)cc1 [TTP 22] | ++ (++: growth ≥80% compared to no treatment) | ++ (++: growth ≥80% compared to no treatment) | – | – | –
Nc1ccc(-c2ccc3ncc4ccc(=O)n(-c5cccc(C(F)(F)F)c5)c4c3c2)cn1 [Torin 2] | ++ (++: growth ≥80% compared to no treatment) | ++ (++: growth ≥80% compared to no treatment) | – | – | –
O=c1ncn2nc(Sc3ccc(F)cc3F)ccc2c1-c1c(Cl)cccc1Cl [VX + 745] | ++ (++: growth ≥80% compared to no treatment) | ++ (++: growth ≥80% compared to no treatment) | – | – | –
O=c1[nH]c(C2CCCN2)nc2c1oc1ccc(Cl)cc12 (stereo not drawn) [XL413] | ++ (++: growth ≥80% compared to no treatment) | ++ (++: growth ≥80% compared to no treatment) | – | – | –
CCOc1cc(N2CCC(O)CC2)ccc1Nc1ncc2c(n1)N(C)c1ccccc1C(=O)N2C [XMD8 + 92] | ++ (++: growth ≥80% compared to no treatment) | ++ (++: growth ≥80% compared to no treatment) | – | – | –
CC1(N)CCN(c2cccnc2NC(=O)c2nc(-c3ncccc3C(F)(F)F)cnc2N)CC1 [darovasertib] | – | ++ (++: growth ≥80% compared to no treatment) | > 80% | – | –
Cn1cc(C2=C(c3cn(C4CCN(Cc5ccccn5)CC4)c4ccccc34)C(=O)NC2=O)c2ccccc21 [enzastaurin] | – | ++ (++: growth ≥80% compared to no treatment) | > 80% | – | –
CC(C)(C)Cn1c(N)nc2ccc(-c3[nH]c(C(C)(C)C)nc3-c3ccc(F)cc3)nc21 [ralimetinib] | – | ++ (++: growth ≥80% compared to no treatment) | > 80% | – | –
COc1cc(F)c(F)c(Nc2ccc(I)cc2F)c1NS(=O)(=O)C1(C[C@H](O)CO)CC1 [refametinib] | – | ++ (++: growth ≥80% compared to no treatment) | > 80% | – | –
Cn1cnc2c(F)c(Nc3ccc(Br)cc3Cl)c(C(=O)NOCCO)cc21 [selumetinib] | – | ++ (++: growth ≥80% compared to no treatment) | > 80% | – | –
CNC(=O)c1cccc(-c2ccc3c(N4CCOC[C@@H]4C)nc(N4CCOC[C@@H]4C)nc3n2)c1 [vistusertib] | – | ++ (++: growth ≥80% compared to no treatment) | > 80% | – | –
LY + 2584702 | ++ (++: growth ≥80% compared to no treatment) | ++ (++: growth ≥80% compared to no treatment) | – | – | –
MK + 8353 | ++ (++: growth ≥80% compared to no treatment) | ++ (++: growth ≥80% compared to no treatment) | – | – | –
PF + 670462 | ++ (++: growth ≥80% compared to no treatment) | ++ (++: growth ≥80% compared to no treatment) | – | – | –
SR + 3677 | ++ (++: growth ≥80% compared to no treatment) | ++ (++: growth ≥80% compared to no treatment) | – | – | –
